# Reference: paper PMC12055641, “The Study of Antistaphylococcal Potential of Omiganan and Retro-Omiganan Under Flow Conditions” (Probiotics and Antimicrobial Proteins, 2024)
# Where two headings read alike, the source gives them in different places. No end group written: not given here.
# What was measured:
# [1] = test system: reference and clinical strains of staphylococci (S. aureus); details: 24 h
# Source text: (§1) Clinical S. aureus strains were collected from patients with atopic dermatitis during their visits to the Outpatient Clinic and hospitalization in the Department of Dermatology, Venereology and Allergology at Medical University of Gdańsk (following the approval from the ethics committee, Approval Number NKBBN/242–477/2014). Reference strains of S. aureus ATCC 25923, S. aureus ATCC 33591, S. aureus ATCC 9144, and S. aureus ATCC 12598 were obtained from the American Type Culture Collection. All the strains were stored at − 80 °C in Roti®-Store cryo vials (Carl Roth GmbH, Karlsruhe, Germany) and before the tests were transferred into fresh Mueller–Hinton Medium (BioMaxima, Lublin, Poland) and incubated for 24 h at 37 °C. Subsequently, each bacterial inoculum was seeded on Mueller–Hinton agar plates (BioMaxima) and incubated again for 24 h. The cultures prepared in this way were used in further antimicrobial assays. Minimum inhibitory concentrations (MICs) were determined according to the Clinical and Laboratory Standards Institute recommendations. […] The experiments were conducted on 96-well microtiter plates, with a final volume of 100 μL. Additionally, in the case of daptomycin, the medium was supplemented with Ca^2+ (50 mg/L). Cell densities were adjusted spectrophotometrically (Multiskan™ GO Microplate Spectrophotometer, Thermo Scientific) at 600 nm. The MICs were taken as the lowest drug concentration at which a visible growth of the microorganisms was inhibited. Minimum biofilm eliminating concentrations (MBECs) were determined on 96-well flat-bottomed microtiter polystyrene plates with resazurin (7-hydroxy-3H-phenoxazin-3-one 10-oxide sodium salt) as a cell viability reagent. To do this, the plates were filled with 100 μL of the initial inoculums of bacteria (0.5 × 10^7 CFU/mL) in the Mueller–Hinton broth and incubated for 24 h at 37 °C. […] After 24 h of incubation, 20 μL of resazurin (4 mg/mL) was added to each well and the MBEC values were read. Minimum biofilm inhibitory concentrations (MBICs) were also determined on 96-well flat-bottomed microtiter polystyrene plates as described previously. To do this, 50 μL of the compounds in the concentration range, diluted MHB, were prepared. Subsequently, the 50 μL of the staphylococcal inoculums were added to reach the same density of bacteria as that in the MBEC assay. After 24 h of incubation at 37 °C, the wells were rinsed three times with PBS and the fresh medium (100 μL) with resazurin (0.6 mg/mL) was added. Then, after 1 h of incubation, MBICs were read. […] All experiments were conducted in triplicate.
# [2] = test system: S. aureus clinical strain 043SC (MRSA); details: 24 h
# Source text: as §1
# [3] = test system: S. aureus ATCC 33591 (MRSA) biofilm; details: ATCC 33591, 24 h
# Source text: as §1
# [4] = test system: S. aureus clinical strain 051N (MRSA) biofilm; details: clinical strain 051N biofilm, 24 h
# Source text: as §1
# [5] = test system: S. aureus clinical strain 004N (MRSA) biofilm; details: clinical strain 004N biofilm, 24 h
# Source text: as §1
# [6] = test system: S. aureus clinical strain 015N (MRSA); details: 24 h
# Source text: as §1
# [7] = test system: biofilm of reference and clinical strains of staphylococci (S. aureus); details: 24 h
# Source text: as §1
# [8] = test system: S. aureus clinical strain 043SC (MRSA) biofilm; details: clinical strain 043SC biofilm, 24 h
# Source text: as §1
# [9] = test system: S. aureus clinical strain 051N (MRSA); details: 24 h
# Source text: as §1
# [10] = test system: S. aureus ATCC 33591 (MRSA); details: ATCC 33591, 24 h
# Source text: as §1
# [11] = test system: S. aureus clinical strain 004N (MRSA); details: 24 h
# Source text: as §1
# [12] = test system: S. aureus clinical strain 015N (MRSA) biofilm; details: clinical strain 015N biofilm, 24 h
# Source text: as §1
# [13] = test system: human keratinocytes (HaCaT); type: cell-based; details: 24 h
# Description: To evaluate the cytotoxicity of the peptides (IC50), the classic MTT assay on 96-well plates was performed for human keratinocytes (HaCaT) which were acquired from the ATCC. The assay utilizes colorimetric determination of the cell metabolic activity, and the color intensity reflects the number of live cells that can be measured spectrophotometrically. […] DMSO was added to the control cells at a final concentration of 1.0% (v/v), which was related to the maximum concentration of the solvent compounds used in the experiment. After 24 h of incubation at 37 °C (humidified 5% CO2 incubator) with the peptides, a medium containing 1 mg/mL of MTT was added to the wells up to a final concentration of 0.5 mg/mL. Subsequently, the plates were incubated at 37 °C for 4 h. Then, the medium was aspirated, and the formazan product was solubilized with DMSO. The background absorbance at 630 nm was subtracted from that at 570 nm for each well (Epoch, BioTek Instruments, USA). Six replicates were conducted for each concentration. All experiments were repeated at least twice and the resulting IC50 values were calculated with GraFit 7 software (v. 7.0, Erithacus, Berkley, CA, USA).
# S. aureus ATCC 25923 = experiment: microbe, parasite or virus in culture
# Source text: as §1
# (§2) Formation of the biofilm inside the PDMS flow chambers was performed using three peristaltic pumps working simultaneously (LP-pump, Kamush, Lipopharm, Poland) and sterile Tygon® 3350 silicone hoses (2.4 × 0.8 × 0.8 mm) with a length of 30 and 50 cm for inlet and outlet, respectively. Bacterial suspensions were prepared (0.5 × 10^7 CFU/mL) in sterile 50-mL test tubes, which were placed in a heating block at 37 °C. Before experiments, all channels were assessed for tightness and sterilized using a 70% 2-propanol solution (10 min, flow rate 1 mL/min) and rinsed with sterile PBS solution (10 min, flow 0.1 mL/min). The formation of biofilm inside the channels was divided into three stages: (1) adhesion—at this stage S. aureus suspensions were passed through the channels for 4 h at a flow rate of 0.1 mL/min; (2) rinsing—the previously used hoses were replaced with new sterile ones, and the channels were rinsed with sterile PBS solution for 10 min at a flow rate of 0.1 mL/min; (3) biofilm growth—after flushing the channels, the silicone hoses were placed in tubes with MHB medium, which was passed through the channels for 24 h at a flow rate of 0.1 mL/min. All experiments included growth and sterility controls.
# (§3) This assay was conducted also on the S. aureus ATCC 25923 and S. aureus 33,591 (MRSA) strains.
# [14] = test system: S. aureus ATCC 33591 (MRSA); experiment: microbe, parasite or virus in culture
# Source text: as §1, §2, §3
# [15] = test system: S. aureus clinical strain 009S; set-up: method as in earlier work; details: clinical isolate 009S, skin; cited from earlier work
# [16] = test system: S. aureus clinical strain 004N (MRSA); set-up: method as in earlier work; details: clinical isolate 004N (MRSA), nasal swab; cited from earlier work
# [17] = test system: S. aureus clinical strain 015N (MRSA); set-up: method as in earlier work; details: clinical isolate 015N (MRSA), nasal swab; cited from earlier work
# [18] = test system: S. aureus clinical strain 031S; set-up: method as in earlier work; details: clinical isolate 031S, skin; cited from earlier work
# [19] = test system: S. aureus clinical strain 005S; set-up: method as in earlier work; details: clinical isolate 005S, skin; cited from earlier work
# [20] = test system: S. aureus clinical strain 051N (MRSA); set-up: method as in earlier work; details: clinical isolate 051N (MRSA), nasal swab; cited from earlier work
# [21] = test system: S. aureus clinical strain 060S; set-up: method as in earlier work; details: clinical isolate 060S, skin; cited from earlier work
# [22] = test system: S. aureus clinical strain 030N; set-up: method as in earlier work; details: clinical isolate 030N, nasal swab; cited from earlier work
# [23] = test system: S. aureus clinical strain 043SC (MRSA); set-up: method as in earlier work; details: clinical isolate 043SC (MRSA), skin of patient with furuncle folliculitis; cited from earlier work
compound,measurement,setting,value
KRRWPWWPWRLI-NH2 [Retro-omiganan AcO^−],mean MIC (initial values),[1],10.00 µg/mL
same,MIC,[2],16 µg/mL
same,MBEC,[3],32 µg/mL
same,MBIC,[3],32 µg/mL
same,MBEC,[4],64 µg/mL
same,MBIC,[4],32 µg/mL
same,MBEC,[5],32 µg/mL
same,MBIC,[5],16 µg/mL
same,MIC,[6],16 µg/mL
same,mean MBEC (initial values),[7],32.00 µg/mL
same,MBEC,[8],32 µg/mL
same,MBIC,[8],16 µg/mL
same,MIC,[9],16 µg/mL
same,MIC,[10],16 µg/mL
same,MIC,[11],16 µg/mL
same,MBEC,[12],32 µg/mL
same,MBIC,[12],16 µg/mL
same,IC50,[13],23.66 µg/mL
CC(=O)NC[C@H]1CN(c2ccc(N3CCOCC3)c(F)c2)C(=O)O1 [Linezolid],MIC,S. aureus ATCC 25923; S. aureus 25923 biofilm treated under flow with Retro-Omiganan (half MBEC) for 24 h,1.0 µg/mL
same,MIC,S. aureus ATCC 25923; S. aureus 25923 biofilm treated under flow with Retro-Omiganan (half MBEC) for 48 h,1.0 µg/mL
same,MIC,S. aureus ATCC 25923; S. aureus 25923 biofilm treated under flow with Retro-Omiganan (half MBEC) for 72 h,1.0 µg/mL
same,MIC,"S. aureus ATCC 25923; Staphylococcus aureus, ATCC25923, 0 h",1 µg/mL
same,MIC,"S. aureus ATCC 25923; Staphylococcus aureus, ATCC25923, 24 h",1 µg/mL
same,MIC,"S. aureus ATCC 25923; Staphylococcus aureus, ATCC25923, 48 h",1 µg/mL
same,MIC,"S. aureus ATCC 25923; Staphylococcus aureus, ATCC25923, 72 h",1 µg/mL
same,MIC,[14]; S. aureus ATCC 33591 (MRSA) biofilm treated under flow with Retro-Omiganan (half MBEC) for 24 h,1.0 µg/mL
same,MIC,[14]; S. aureus ATCC 33591 (MRSA) biofilm treated under flow with Retro-Omiganan (half MBEC) for 48 h,1.0 µg/mL
same,MIC,[14]; S. aureus ATCC 33591 (MRSA) biofilm treated under flow with Retro-Omiganan (half MBEC) for 72 h,1.0 µg/mL
same,MIC,"[14]; Staphylococcus aureus, 0 h",1 µg/mL
same,MIC,"[14]; Staphylococcus aureus, 24 h",1 µg/mL
same,MIC,"[14]; Staphylococcus aureus, 48 h",1 µg/mL
same,MIC,"[14]; Staphylococcus aureus, 72 h",1 µg/mL
same,Antimicrobial susceptibility (MIC),[15],0.25 µg/mL
same,Antimicrobial susceptibility (MIC),[16],1 µg/mL
same,Antimicrobial susceptibility (MIC),[17],2 µg/mL
same,Antimicrobial susceptibility (MIC),[18],2 µg/mL
same,Antimicrobial susceptibility (MIC),[19],0.5 µg/mL
same,Antimicrobial susceptibility (MIC),[20],2 µg/mL
same,Antimicrobial susceptibility (MIC),[21],1 µg/mL
same,Antimicrobial susceptibility (MIC),[22],0.5 µg/mL
same,Antimicrobial susceptibility (MIC),[23],2 µg/mL
